# Results published in US20090163451A1, “METHODS FOR TREATING VISCERAL PAIN” (priority 2007, published 2009).
# “Also recorded” adds a separate entry of the source.
# Tests used:
# [1] = system: rats with experimental pancreatitis (DBTC), referred abdominal hypersensitivity; experiment: experimental pancreatitis model (IV DBTC): referred abdominal hypersensitivity, withdrawals to von Frey filament; format: in vivo, Sprague Dawley rats; details: DBTC rats; for effect of concurrent RVM antagonist on the effect of RVM sumatriptan: sumatriptan 10 μg RVM; for effect of concurrent RVM antagonist on the effect of RVM sumatriptan / effect of RVM antagonist on the effect of systemic sumatriptan: antagonist 3 μg RVM
# Procedure: (§1) Adult male Sprague Dawley rats (Harlan, Indianapolis, Ind.), weighing 150-200 g, were maintained in a climate-controlled room with ad lib food and water on a 12 hour/12 hour light/dark cycle (lights on at 07:00 hours). All procedures followed the policies of the International Association for the Study of Pain and the NIH guidelines for the handling and use of laboratory animals. Studies were approved by the University of Arizona IACUC.
# (§2) Dibutyltin dichloride (DBTC) was obtained from Sigma-Aldrich (Milwaukee, Wis.) and dissolved in 100% ethanol to a concentration of 8 mg/kg (Sparmann et al., Gastroenterology. 112:1664-1672 (1997))). Sumatriptan succinate was obtained from Toronto Research Chemicals (ON, Canada) and dissolved in saline to 1, 3, and 10 μg for RVM microinjections and 100, 200, and 300 μg/kg for systemic injections (Kayser et al., Br J Pharmacol. 137:1287-1297 (2002)). The 5HT1B antagonist isamoltane and the 5HT1D antagonist BRL15722 were obtained from Tocris (Elllisville, Mo.). Isamoltane was dissolved in saline to a concentration of 3 μg for RVM microinjection and to a concentration of 4 mg/kg (Ottani et al., Eur J Pharmacol. 497:181-186 (2004)) for system application. BRL15722 was dissolved in 10% DMSO to a concentration of 3 μg for RVM microinjection and to a concentration of 0.3 mg/kg (Ottani et al., Eur J Pharmacol. 497:181-186 (2004)) for systemic application.
# For the experiments involving microinjection of drugs into the RVM, rats underwent surgeries to implant RVM cannulae. After five days of recovery, rats received either intravenous injection of DBTC to induce pancreatitis, or intracolonic injection of sodium butyrate to induce colonic hypersensitivity. Animals were monitored for development of visceral hypersensitivity on the subsequent days. On day six after either induction of pancreatitis or colonic hypersensitivity, animals underwent baseline behavioral measurements. […] For experiments investigating the effects of serotonin antagonists, the drugs were microinjected concurrently with injection of sumatriptan and animals were monitored for the subsequent two h. Separate groups of animals were microinjected with the antagonists alone to control for possible effects of the drugs by themselves.
# For the experiments involving systemic drug administration, rats received intravenous injection of DBTC to induce pancreatitis or intracolonic injection of sodium butyrate to induce colonic hypersensitivity. On day six after either induction of pancreatitis of colonic hypersensitivity, animals underwent baseline behavioral measurements. […] Separate groups of animals were injected with the antagonists alone. Additionally, separate groups of animals were injected with sumatriptan systemically and microinjected with the antagonists in the RVM to determine if the RVM is a site of action for systemically applied sumatriptan. The microinjection of antagonists into the RVM was done immediately following the systemic injection of sumatriptan. All animals were tested for behavioral signs of hypersensitivity every 20 min for two h after the end of the injections.
# Pancreatitis was produced by a tail vein injection of dibutyltin dichloride (DBTC, Aldrich, Milwaukee, Wis., 0.25 cc) dissolved in 100% ethanol at a dose of 8 mg/kg under isofluorane anesthesia (2-3 liters/min, 4.0%/vol until anesthetized, then 2.5%/vol throughout the procedure; Vera-Portocarrero et al., Gastroenterology. 130:2155-2164 (2006)). Control animals were injected with the vehicle solution only (100% ethanol, 0.25 mL).
# Referred abdominal hypersensitivity in the pancreatitis model was quantified by measuring the number of withdrawal events evoked by application of a calibrated von Frey filament (determined by either abdominal withdrawal, licking of the abdominal area, or whole body withdrawal). Rats were placed inside Plexiglas boxes on an elevated fine fiberglass screen mesh and acclimated for 30 minutes before testing. […]
# [2] = system: rats with experimental colonic hypersensitivity (butyrate), referred lumbar hypersensitivity; experiment: colonic hypersensitivity model (intracolonic sodium butyrate): referred lumbar hypersensitivity, von Frey mechanical threshold; format: in vivo, Sprague Dawley rats; details: butyrate rats; for effect of concurrent RVM antagonist on the effect of RVM sumatriptan: sumatriptan 10 μg RVM; for effect of concurrent systemic (IP) antagonist on the effect of systemic sumatriptan: isamoltane 4 mg/kg IP or BRL15722 0.3 mg/kg IP
# Procedure: as §1, §2
# For the experiments involving microinjection of drugs into the RVM, rats underwent surgeries to implant RVM cannulae. After five days of recovery, rats received either intravenous injection of DBTC to induce pancreatitis, or intracolonic injection of sodium butyrate to induce colonic hypersensitivity. Animals were monitored for development of visceral hypersensitivity on the subsequent days. On day six after either induction of pancreatitis or colonic hypersensitivity, animals underwent baseline behavioral measurements. Sumatriptan was microinjected into the RVM at different doses (separate groups of rats for each dose) and animals were monitored behaviorally for two h after sumatriptan application in the RVM. For experiments investigating the effects of serotonin antagonists, the drugs were microinjected concurrently with injection of sumatriptan and animals were monitored for the subsequent two h. Separate groups of animals were microinjected with the antagonists alone to control for possible effects of the drugs by themselves.
# For the experiments involving systemic drug administration, rats received intravenous injection of DBTC to induce pancreatitis or intracolonic injection of sodium butyrate to induce colonic hypersensitivity. On day six after either induction of pancreatitis of colonic hypersensitivity, animals underwent baseline behavioral measurements. Sumatriptan was injected intraperitoneally at different doses (separate groups of rats for each dose) and the animals were monitored behaviorally every 20 min for two h after injection. For experiments investigating the effects of serotonin antagonists, the drugs were injected intraperitoneally immediately following the injection of sumatriptan (separate groups for each respective antagonist). Separate groups of animals were injected with the antagonists alone. Additionally, separate groups of animals were injected with sumatriptan systemically and microinjected with the antagonists in the RVM to determine if the RVM is a site of action for systemically applied sumatriptan. The microinjection of antagonists into the RVM was done immediately following the systemic injection of sumatriptan. All animals were tested for behavioral signs of hypersensitivity every 20 min for two h after the end of the injections.
# Colonic hypersensitivity was induced by enemas of a sodium butyrate solution ([…]) twice daily for 3 days (Bourdu et al., Gastroenterology. 128:1996-2008 (2005)). […]
# [3] = system: spinal neurons, colorectal distention (CRD); details: microinjection into the RVM (Zhuo et al.); cited from earlier work
# [4] = system: referred visceral hypersensitivity induced by pancreatic inflammation; details: microinjection into the RVM (Vera-Portocarrero et al. 2006); cited from earlier work
# [5] = sumatriptan 300 μg/kg IP, listed as BRL1 5722
Compound,effect of concurrent RVM antagonist on the effect of RVM sumatriptan [1],effect of concurrent RVM antagonist on the effect of RVM sumatriptan ([1]; listed as BRL1 5722),effect of RVM antagonist on the effect of systemic sumatriptan ([1]; sumatriptan 300 μg/kg IP),"effect of RVM antagonist on the effect of systemic sumatriptan [1, 5]","effect of concurrent systemic (IP) antagonist on the effect of systemic sumatriptan ([1]; sumatriptan 300 μg/kg IP, isamoltane 4 mg/kg IP or BRL15722 0.3 mg/kg IP)",effect of concurrent RVM antagonist on the effect of RVM sumatriptan ([2]; antagonist 3 μg RVM),"effect of concurrent RVM antagonist on the effect of RVM sumatriptan ([2]; antagonist 3 μg RVM, listed as BRL1 5722)","effect of RVM antagonist on the effect of systemic sumatriptan ([2]; sumatriptan 300 μg/kg IP, antagonist 3 μg RVM)",effect of concurrent systemic (IP) antagonist on the effect of systemic sumatriptan ([2]; sumatriptan 300 μg/kg IP),"effect of concurrent systemic (IP) antagonist on the effect of systemic sumatriptan [2, 5]",spontaneous activity and responses of spinal neurons to colorectal distention [3],referred visceral hypersensitivity induced by pancreatic inflammation [4]
OC(CN1CCN(c2cccc(Cl)c2)CC1)C(c1ccccc1)c1ccccc1 (stereo not drawn) [BRL15722],did not block the effect of RVM sumatriptan,did not have any effect,did not block the effect of sumatriptan,failed to antagonize the effects of systemic sumatriptan,reduced the effects of systemic sumatriptan; also recorded: blocked the effect of sumatriptan,did not block the effect of RVM sumatriptan,did not have any effect,failed to antagonize the effects of systemic sumatriptan; also recorded: did not block the effect of systemic sumatriptan,blocked the effect of systemic sumatriptan,reduced the effects of systemic sumatriptan,,
CCN(CC)CC(=O)Nc1c(C)cccc1C [lidocaine],,,,,,,,,,,reduced spontaneous activity and responses of spinal neurons to colorectal distention; also recorded: reduced spontaneous activity and responses of spinal neurons to CRD,attenuated referred visceral hypersensitivity
